This note sets out measurements from ChEMBL document CHEMBL2073808, “P-glycoprotein inhibition by the multidrug resistance-reversing agent MS-209 enhances bioavailability and antitumor efficacy of orally administered paclitaxel” (Cancer Chemother Pharmacol, 2002).

This experiment has as its target ATP-dependent translocase ABCB1 (Homo sapiens, UniProt P08183). Nature of the experiment: TP_TRANSPORTER: inhibition of Taxol transepithelial transport (basal to apical) in Caco-2 cells. Type of experiment: functional, cell-based. In general terms: Caco-2 cells form a polarised layer with tight junctions and transporters.

ATP-dependent translocase ABCB1, sequence (P08183 whole entry): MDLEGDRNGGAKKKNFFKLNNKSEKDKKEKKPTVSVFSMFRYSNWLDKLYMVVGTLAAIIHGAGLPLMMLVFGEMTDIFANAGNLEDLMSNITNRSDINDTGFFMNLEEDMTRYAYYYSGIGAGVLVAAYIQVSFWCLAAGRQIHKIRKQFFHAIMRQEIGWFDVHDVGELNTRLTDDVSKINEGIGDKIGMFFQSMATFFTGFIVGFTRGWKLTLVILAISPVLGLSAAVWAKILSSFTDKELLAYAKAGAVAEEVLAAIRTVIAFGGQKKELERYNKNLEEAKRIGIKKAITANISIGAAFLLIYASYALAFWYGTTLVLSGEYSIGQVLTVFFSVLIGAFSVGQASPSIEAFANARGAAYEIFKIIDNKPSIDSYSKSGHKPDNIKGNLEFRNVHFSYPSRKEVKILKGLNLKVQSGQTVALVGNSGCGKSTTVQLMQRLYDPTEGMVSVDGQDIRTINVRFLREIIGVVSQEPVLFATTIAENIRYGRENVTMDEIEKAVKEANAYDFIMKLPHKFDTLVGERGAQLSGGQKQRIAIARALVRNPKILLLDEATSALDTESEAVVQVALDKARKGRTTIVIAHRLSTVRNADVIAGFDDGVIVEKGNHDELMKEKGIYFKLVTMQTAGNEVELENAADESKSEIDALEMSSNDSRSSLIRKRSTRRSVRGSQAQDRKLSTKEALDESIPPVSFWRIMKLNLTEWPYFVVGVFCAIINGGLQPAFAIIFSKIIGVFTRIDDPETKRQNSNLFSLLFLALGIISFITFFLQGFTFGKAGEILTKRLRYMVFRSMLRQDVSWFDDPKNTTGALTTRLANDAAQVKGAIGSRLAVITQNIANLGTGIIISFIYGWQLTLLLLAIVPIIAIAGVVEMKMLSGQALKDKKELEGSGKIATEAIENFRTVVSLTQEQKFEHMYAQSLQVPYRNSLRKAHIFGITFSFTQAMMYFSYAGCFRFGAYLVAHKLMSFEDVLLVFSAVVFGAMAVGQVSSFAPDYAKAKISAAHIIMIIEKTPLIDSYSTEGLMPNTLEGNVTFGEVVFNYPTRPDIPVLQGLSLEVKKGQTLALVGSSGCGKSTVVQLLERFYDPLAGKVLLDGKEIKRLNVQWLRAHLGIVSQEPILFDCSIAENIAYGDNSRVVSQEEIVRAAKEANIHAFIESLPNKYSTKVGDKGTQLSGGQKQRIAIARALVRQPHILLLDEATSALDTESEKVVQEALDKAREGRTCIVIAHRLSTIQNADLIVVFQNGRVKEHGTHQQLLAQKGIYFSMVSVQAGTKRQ

For orientation: Ki means a measure of affinity in units of concentration, obtained from inhibition or displacement. As for `O=C(C(c1ccccc1)c1ccccc1)N1CCN(C[C@@H](O)COc2cccc3ncccc23)CC1`, the Ki is 400 nM.
